Test results reported in PubChem BioAssay AID1963845 (Molecular Pharmacology Branch, DTP, NCI, 2024).

Test system: 429239-143-T-J1-PDC complex spheroid viability
Experiment: Anticancer human tumor 429239-143-T-J1-PDC patient-derived small cell lung carcinoma cell line growth inhibition [POLQ]
Conditions: for IC50: curve of first compound; for viability, T/C: stronger effect = lower value
Procedure, shortened: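 Patient-derived tumour cells were co-cultured with HUVEC and mesenchymal stem cells as multicellular spheroids at 37 °C. They were treated with POLQ inhibitors (novobiocin, ART-558, RP6685) alone or combined with other agents. Top concentrations were at or near clinical Cmax (otherwise 10 microM; SN-38 at 1 microM), decreasing in half-log steps.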

[1] = second compound 0.0316 µM, first compound 0.0316 µM
[2] = second compound 0.0316 µM, first compound 0.1 µM
[3] = second compound 0.0316 µM, first compound 0.316 µM
[4] = second compound 0.0316 µM, first compound 1 µM
[5] = second compound 0.1 µM, first compound 0.0316 µM
[6] = second compound 0.1 µM, first compound 0.1 µM
[7] = second compound 0.1 µM, first compound 0.316 µM
[8] = second compound 0.1 µM, first compound 1 µM
[9] = second compound 0.316 µM, first compound 0.0316 µM
[10] = second compound 0.316 µM, first compound 0.1 µM
[11] = second compound 0.316 µM, first compound 0.316 µM
[12] = second compound 0.316 µM, first compound 1 µM
[13] = second compound 1 µM, first compound 0.0316 µM
[14] = second compound 1 µM, first compound 0.1 µM
[15] = second compound 1 µM, first compound 0.316 µM
[16] = second compound 1 µM, first compound 1 µM
[17] = second compound 3.16 µM, first compound 0.0316 µM
[18] = second compound 3.16 µM, first compound 0.1 µM
[19] = second compound 3.16 µM, first compound 0.316 µM
[20] = second compound 3.16 µM, first compound 1 µM
[21] = second compound 10 µM, first compound 0.0316 µM
[22] = second compound 10 µM, first compound 0.1 µM
[23] = second compound 10 µM, first compound 0.316 µM
[24] = second compound 10 µM, first compound 1 µM
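Note: luminescence signal used as surrogate measure of viable cells; spheroids exposed to compounds for seven days before readout.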
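Throughout, for viability, T/C: 100% = DMSO vehicle control viability as luminescence relative to vehicle.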

In the case of `CC1COCCN1c1cc(C2(O)CC3CCC(C2)O3)c2cnn(-c3ccn[nH]3)c2n1` (centres undefined) + Cc1cccc(N(C)C(=O)C2C(O)CCN2c2nc(C)cc(C(F)(F)F)c2C#N)c1, the IC50 (second compound 0.0316 µM) is reported as 67.2 nM, the IC50 (second compound 0.1 µM) is reported as 66.8 nM and the IC50 (second compound 0.316 µM) is reported as 61.7 nM. The IC50 (second compound 1 µM) was 71 nM, the IC50 (second compound 3.16 µM) was 47.8 nM and the IC50 (second compound 10 µM) was 63 nM. For the same compound, the viability, T/C [1] was 76.8%, the viability, T/C [2] was 35.8% and the viability, T/C [3] was 17.6%. It also gave a viability, T/C [4] of 10.3%, a viability, T/C (second compound 0.0316 µM, first compound 3.16 µM) of 7.41% and a viability, T/C (second compound 0.0316 µM, first compound 10 µM) of 5.4%. It also gave a viability, T/C [5] of 69.6%, a viability, T/C [6] of 39.6% and a viability, T/C [7] of 19.3%. It also gave a viability, T/C [8] of 11.8%, a viability, T/C (second compound 0.1 µM, first compound 3.16 µM) of 7.54% and a viability, T/C (second compound 0.1 µM, first compound 10 µM) of 5.93%. For the same compound, the viability, T/C [9] was 62.1%, the viability, T/C [10] was 41.3% and the viability, T/C [11] was 16.2%. For the same compound, the viability, T/C [12] was 9.23%, the viability, T/C (second compound 0.316 µM, first compound 3.16 µM) was 9.02% and the viability, T/C (second compound 0.316 µM, first compound 10 µM) was 5.86%. For the same compound, the viability, T/C [13] was 73.8%, the viability, T/C [14] was 40% and the viability, T/C [15] was 17.7%. It also gave a viability, T/C [16] of 9.58%, a viability, T/C (second compound 1 µM, first compound 3.16 µM) of 8.48% and a viability, T/C (second compound 1 µM, first compound 10 µM) of 5.82%. It also gave a viability, T/C [17] of 60.1%, a viability, T/C [18] of 31.8% and a viability, T/C [19] of 17.9%. It also gave a viability, T/C [20] of 10.3%, a viability, T/C (second compound 3.16 µM, first compound 3.16 µM) of 8.26% and a viability, T/C (second compound 3.16 µM, first compound 10 µM) of 6.08%. The viability, T/C [21] was 63%, the viability, T/C [22] was 41.5% and the viability, T/C [23] was 18.5%. For the same compound, the viability, T/C [24] was 10.8%, the viability, T/C (second compound 10 µM, first compound 3.16 µM) was 9.19% and the viability, T/C (second compound 10 µM, first compound 10 µM) was 5.28%.
With `COc1cccc(OCCCN)c1-c1cc(Nc2cnc(C#N)cn2)n[nH]1` + COC1C(OC(N)=O)C(O)C(Oc2ccc3c(O)c(NC(=O)c4ccc(O)c(CC=C(C)C)c4)c(=O)oc3c2C)OC1(C)C the IC50 (second compound 0.0316 µM) was 82.1 nM, the IC50 (second compound 0.1 µM) was 69 nM and the IC50 (second compound 0.316 µM) was 69.6 nM. For the same compound, the IC50 (second compound 1 µM) was 64.5 nM, the IC50 (second compound 3.16 µM) was 57.9 nM and the IC50 (second compound 10 µM) was 54.9 nM. It also gave a viability, T/C (second compound 0.0316 µM, first compound 0.00316 µM) of 98.8%, a viability, T/C (second compound 0.0316 µM, first compound 0.01 µM) of 94.7% and a viability, T/C [1] of 79.8%. For the same compound, the viability, T/C [2] was 42.2%, the viability, T/C [3] was 32% and the viability, T/C [4] was 21.3%. The viability, T/C (second compound 0.1 µM, first compound 0.00316 µM) was 93.6%, the viability, T/C (second compound 0.1 µM, first compound 0.01 µM) was 92.8% and the viability, T/C [5] was 66.6%. It also gave a viability, T/C [6] of 42.1%, a viability, T/C [7] of 26.6% and a viability, T/C [8] of 21%. It also gave a viability, T/C (second compound 0.316 µM, first compound 0.00316 µM) of 99.7%, a viability, T/C (second compound 0.316 µM, first compound 0.01 µM) of 99% and a viability, T/C [9] of 72.8%. The viability, T/C [10] was 39.1%, the viability, T/C [11] was 27.1% and the viability, T/C [12] was 20.4%. For the same compound, the viability, T/C (second compound 1 µM, first compound 0.00316 µM) was 90.8%, the viability, T/C (second compound 1 µM, first compound 0.01 µM) was 99.1% and the viability, T/C [13] was 70.9%. The viability, T/C [14] was 37.3%, the viability, T/C [15] was 30.3% and the viability, T/C [16] was 24%. The viability, T/C (second compound 3.16 µM, first compound 0.00316 µM) was 96.3%, the viability, T/C (second compound 3.16 µM, first compound 0.01 µM) was 99.4% and the viability, T/C [17] was 66.7%. It also gave a viability, T/C [18] of 35.3%, a viability, T/C [19] of 28.5% and a viability, T/C [20] of 23.1%. The viability, T/C (second compound 10 µM, first compound 0.00316 µM) was 83.6%, the viability, T/C (second compound 10 µM, first compound 0.01 µM) was 83.5% and the viability, T/C [21] was 64.7%. The viability, T/C [22] was 33.5%, the viability, T/C [23] was 34% and the viability, T/C [24] was 23.4%.
